Where “and” joins values, the source holds several entries; their conditions need not be identical. Equal entries are not always repeated. Marks after values point to notes of the source that are not given here.
Experiments:
Format in all cases: in vivo
[1] = system: Tetranychus urticae; assay: Knock-down bioassays; details: 1% w/v; mortality assessed at 1, 2, 4, 6, 8, 16 and 24 hours after spraying; Figures 7 and 8
Method: Furthermore, the composition of the present invention was tested to evaluate its knock-down effect in the contact mortality assays of individual active ingredients and blend. Mortality, as in bioassay of contact mortality, was assessed at 1, 2, 4, 6, 8, 16 and 24 hours after spraying the blend of Eucalyptus oil and geraniol. In the case of individual active ingredients (Eucalyptus oil and geraniol), we used the dose that give major activity in contact (topical) assays 1% w/v Table 4. Blend was prepared at 0.06:0.06 %w/v (Eucalyptus oil: geraniol) for the bioassays with the biopesticide composition.
The same behavior was stated in the case of biopesticide composition (Figure 9). Abrupt curves showing high mortalities within oner hour are indicative of neurotoxic effects. However, smoothed curves could be used as indicative of non-toxic mode of action.

[2] = system: Tetranychus urticae; assay: Contact mortality (Leaf Disc Method); details: for Mortality (%M): adults, 24 h, Abbott corrected
Method: This bioassay is to evaluate the physical effect of different doses on the mortality of Tetranychus urticae (red spider mite) adults in a short/medium-term (0-24 hours) by topical application.
Tests were conducted in plastic net petri dishes (5 cm diameter) (Figure 2). (a) The bottom of the petri dish was covered with a thin (0.4 mm) layer of agar 12% (w/v). After 2 minutes, to cool agar, (b) bean (Phaseolus vulgaris) leaf discs (2 cm^2) were placed on the fresh agar surface (upper side up) and allowed to dry for 30 minutes. This provides a support and disc hydration along the experiment (24 h). Fifteen (c) Tetranychus urticae adults were placed on the upper surface of a bean leaf disc with a fine entomological brush. The mites were allowed to acclimate for 30 minutes. A total of 10 petri dishes for each treatment (individual active ingredients, blend of active ingredients, positive and negative controls) were used in each experiment and temporarily replicated 3 times along the week.
Each treatment (different doses of individual active ingredients, blend of active ingredients, and controls) was sprayed (50 µl) two times on the settled spider mites, covering all the disc surface in each petri dishes using a micro-atomizer. Closed and labeled bottles were incubated in a compact-type growth chamber at 25 (±2) °C, 60% relative humidity (RH), and a photoperiod of 16 h:8 h light: dark. Numbers of live and dead mite adults were counted at 24 h post-treatment. Mite adults were considered dead if no movement was apparent after probing with the tip of a fine brush under stereoscopic magnifying glass. Mortality percentage was calculated in treatment and control groups. If the mortality in negative control is above 20%, the test was discarded. When control mortality was greater than 5% but less than 20%, the observed mortality (%M) was corrected using Abbott's formula (Abbott, 1925): % Corrected M = (X−Y)/(100−Y)x [formula]
Where: X= Mortality (%) in the treatment; Y= Mortality (%) in the control
Means of %M were compared using a one-way analysis of variance (ANOVA, p<0.05) and LSD-test as a post hoc test to verify significant differences between single treatments using Statgraphics Centurion XVII software. When nonnormality in the data was detected, an additional Kruskal-Wallis test was conducted, and Box-and-Whisker Plot (Median Notch) was presented. Each active ingredient and the blend were tested in a dose-response experiment (3-5 serial dilutions) to calculate their relative potency (EC50 and/or EC90) from a linear regression analysis (%M on Log-dose). In addition, death mite adults were carefully observed under stereoscopic magnifying glass to differentiate the mechanisms of action involved in contact mortality such as: Blocking tracheal insect spiracles (suffocation) and effect on insect cuticle and/or membranes (osmotic shock). Table 4. Contact mortality of test items against Tetranychus urticae

[3] = system: Tetranychus urticae; assay: In planta settling inhibition (Whole Plant Direct Method); details: 24 hours
Method: The objective of this bioassay is to evaluate the effect of different doses of individual active ingredients and biopesticide composition on the settling behavior of Tetranychus urticae. It's based on the preference of mite adults for treated and non-treated bean (Phaseolus vulgaris) plants located in the same petri dishes (in vitro assays) or entomological cages (in planta assays): The experiments were conducted in bugdorm®-type net cages (60x60x60 cm, 140 microns mesh) (Figure 4). By putting inside this, 14 cm diameter pots with two similar bean plants in two-leaf stage in each pot (Figure 5). One of the plants was sprayed with the composition of the present invention and the other with the control and allowed to dry for 30 minutes. Adult mites (up to 100) were released at the base of stems between the two plants (treated and untreated), so that they had to choose between two alternatives or remain walking and/or resting on the cage walk. A total of 5 cages for each treatment (four plant each) (Figure 6) and control were used in each experiment and replicated 3 times in different days. Closed and labeled cages were incubated in a "walk-in" type growth chamber at 25 (±2) °C, 60% relative humidity (RH), and a photoperiod of 16 h:8 h light: dark. After 24 hours the number of adults settled in treated and non-treated plants and the number of laid eggs were recorded on both side of blade in each leaf. Number of mites and eggs were counted under a stereomicroscope. Settling inhibition index (%SI) was calculated according to the following formula: %SI = [1−((T)/(C))] × 100 [formula] T= Settling of treated plants; C= Settling of control plants. Oviposition inhibition index (%10) was calculated according to the following formula: %IO = [1−((T)/(C))] × 100 [formula] T= laid eggs on treated plants; C= laid eggs on control plants. Means of %SI and %10 were analyzed for significance by the non-parametric Wilcoxon signed-rank test (p<0.05). An asterisk (*) means statistically significancy. Table 6. In planta antifeedant effects against Tetranychus urticae

[4] = system: Tetranychus urticae; assay: In vitro settling inhibition (leaf disc painting method); details: 24 h
Method: The objective of this bioassay is to evaluate the effect of different doses of individual active ingredients and biopesticide composition on the settling behavior of Tetranychus urticae. It's based on the preference of mite adults for treated and non-treated bean (Phaseolus vulgaris) plants located in the same petri dishes (in vitro assays) or entomological cages (in planta assays): Tests were conducted in plastic net petri dishes (5cm diameter) (Figure 3). The bottom of the petri dish was covered with a thin (0.4 mm) layer of agar 12% (w/v) (a). After 2 minutes to cool agar, bean (Phaseolus vulgaris) leaf discs (2 cm^2) were placed on the fresh agar surface (upper side up) and allowed to dry for 30 minutes. It provides a support and disc hydration along the experiment (24 h). Half of the discs were treated (T) with 20 µl of the individually active ingredients and the blend and the other half with water containing 2% TWEEN® 80 that was used as control (C). Fifteen Tetranychus urticae adults were placed on the middle of treated and untreated leaf discs and allowed to feed (24 h) in a compact-type growth chamber at 25 (±2) °C, 60% relative humidity, and a photoperiod of 16 h:8 h light: dark. A total of 10 petri dishes for each treatment were used in each experiment and temporarily replicated 3 times along the week. Table 5. In vitro antifeedant effects against Tetranychus urticae Settling inhibition index (%SI) was calculated according to the following formula: %SI = [1−((T)/(C))] × 100 [formula] T= Settling of treated plants; C= Settling of control plants.

## CC(C)=CCC/C(C)=C/CO [geraniol]
[1]
  Knock-down effect (knockdown curve): slow and gradual increase in the mortality along the time
[2]; Dose 0.10 % (w/v)
  Mortality (%M): 18,1% and 18.1 ± 2.4% and 18.1 ± 2.4 ^a %
[2]; Dose 0.50 % (w/v)
  Mortality (%M): 28.2% and 28.2 ± 3.2% and 28.2 ± 3.2 ^b %
[2]; Dose 1.0 % (w/v)
  Mortality (%M): 43.9 ± 2.5% and 43.9 ± 2.5 ^c %
[2]; contact mortality, linear regression %M on Log-dose, limits in brackets
  EC50 (%, w/v): EC50 (%, w/v) = 2.44 (1.24, 4.75)
[2]; in vivo
  concentration given 50% of contact mortality: 2.44%
[3]; Dose 0.10 % (w/v)
  Oviposition inhibition (%IO): 44.3 ± 3.7* %
  Settling inhibition (%SI): 57.7 ± 5.3%
[3]; Dose 0.50 % (w/v)
  Oviposition inhibition (%IO): 72.1 ± 3.1* %
  Settling inhibition (%SI): 73.2 ± 2.6%
[3]; Dose 1.0 % (w/v)
  Oviposition inhibition (%IO): 81.1 ± 2.1* %
  Settling inhibition (%SI): 76.1 ± 2.7%
[4]; Dose 0.02 % (w/v)
  Settling inhibition (%SI): 31.1 ± 4.4 %
[4]; Dose 0.05 % (w/v)
  Settling inhibition (%SI): 47.5 ± 4.6 %
[4]; Dose 0.10 % (w/v)
  Settling inhibition (%SI): 70.6%
[4]; Dose 0.10 % (w/v), listed as Geraniol
  Settling inhibition (%SI): 70.6 ± 3.0 %
[4]; Dose 0.50 % (w/v)
  Settling inhibition (%SI): 75.3 ± 3.4 %
[4]; Dose 1.0 % (w/v)
  Settling inhibition (%SI): 82.9 ± 2.5 %

## Cc1ccc(C(C)C)cc1O [Carvacrol]
[2]; Dose 0.01 % (w/v)
  Mortality (%M): 38.9 ± 5.1%
[2]; Dose 0.05 % (w/v)
  Mortality (%M): 47.1 ± 7.2%
[2]; Dose 0.10 % (w/v)
  Mortality (%M): 66.8 ± 5.3%
[2]; Dose 1.0 % (w/v)
  Mortality (%M): 100.0 ± 0.0%
[2]; EC80
  concentration given 80% of contact mortality: 0.55%
[2]; Table 12, contact mortality, limits in brackets, text calls it EC80
  EC80 (%, w/v): EC50 (%, w/v) = 0.55 (0.42, 0.8)
